According to ChEMBL document CHEMBL1201861, “Genomics of Drug Sensitity in Cancer screening data, Wellcome Trust Sanger Institute”:

Legend:
Assay in all cases: cells
[1] = system: COR-L105; type: functional, cell-based, Homo sapiens; conditions: Homo sapiens, COR-L105;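 note: cell growth inhibition determined with a viability assay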
Description: SANGER: Inhibition of human COR-L105 cell growth in a cell viability assay.

[2] = system: Capan-2; type: functional, cell-based, Homo sapiens; conditions: Homo sapiens, Capan-2;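 note: Capan-2 cell growth inhibition, read out with a viability assay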
Description: SANGER: Inhibition of human Capan-2 cell growth in a cell viability assay.

[3] = system: D-542MG; type: functional, cell-based, Homo sapiens; conditions: Homo sapiens, D-542MG
Description: SANGER: Inhibition of human D-542MG cell growth in a cell viability assay.

[4] = system: DJM-1; type: functional, cell-based, Homo sapiens; conditions: Homo sapiens, DJM-1;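 note: growth inhibition of human DJM-1 cells, read out by a cell viability assay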
Description: SANGER: Inhibition of human DJM-1 cell growth in a cell viability assay.

[5] = system: DMS-273; type: functional, cell-based, Homo sapiens; conditions: Homo sapiens, DMS-273
Description: SANGER: Inhibition of human DMS-273 cell growth in a cell viability assay.

[6] = system: EC-GI-10; type: functional, cell-based, Homo sapiens; conditions: Homo sapiens, EC-GI-10
Description: SANGER: Inhibition of human EC-GI-10 cell growth in a cell viability assay.

[7] = system: ES6; type: functional, cell-based, Homo sapiens; conditions: Homo sapiens, ES6;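 note: growth inhibition of human ES6 cells, read out with a cell viability assay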
Description: SANGER: Inhibition of human ES6 cell growth in a cell viability assay.

[8] = system: HCC1937; type: functional, cell-based, Homo sapiens; conditions: Homo sapiens, HCC1937;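 note: growth inhibition measured with a cell viability read-out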
Description: SANGER: Inhibition of human HCC1937 cell growth in a cell viability assay.

[9] = system: HCC70; type: functional, cell-based, Homo sapiens; conditions: Homo sapiens, HCC70;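 note: cell viability assay measuring how strongly the compound suppresses proliferation of HCC70 cells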
Description: SANGER: Inhibition of human HCC70 cell growth in a cell viability assay.

[10] = system: HEL; type: functional, cell-based, Homo sapiens; conditions: Homo sapiens, HEL;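 note: growth inhibition of HEL cells, read out with a cell viability assay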
Description: SANGER: Inhibition of human HEL cell growth in a cell viability assay.

[11] = system: HMV-2 cell line; type: functional, cell-based, Homo sapiens; conditions: Homo sapiens, HMV-2;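 note: growth inhibition of HMV-II cells, read out with a cell viability assay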
Description: SANGER: Inhibition of human HMV-II cell growth in a cell viability assay.

[12] = system: HN; type: functional, cell-based, Homo sapiens; conditions: Homo sapiens, HN
Description: SANGER: Inhibition of human HN cell growth in a cell viability assay.

[13] = system: HOS; type: functional, cell-based, Homo sapiens; conditions: Homo sapiens, HOS;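 note: growth inhibition of human HOS cells, read out with a cell viability assay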
Description: SANGER: Inhibition of human HOS cell growth in a cell viability assay.

[14] = system: Hs-578T; type: functional, cell-based, Homo sapiens; conditions: Homo sapiens, Hs-578T
Description: SANGER: Inhibition of human Hs-578-T cell growth in a cell viability assay.

[15] = system: KP-N-YS; type: functional, cell-based; conditions: Homo sapiens;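 note: cell viability assay measuring inhibition of cell line growth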
Description: SANGER: Inhibition of human KP-N-YS cell growth in a cell viability assay.

[16] = system: KYSE-180; type: functional, cell-based, Homo sapiens; conditions: Homo sapiens, KYSE-180;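 note: growth inhibition of KYSE-180 cells, read out with a cell viability assay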
Description: SANGER: Inhibition of human KYSE-180 cell growth in a cell viability assay.

[17] = system: LAMA-84; type: functional, cell-based; conditions: Homo sapiens;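 note: growth inhibition of LAMA-84 cells, read out with a cell viability assay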
Description: SANGER: Inhibition of human LAMA-84 cell growth in a cell viability assay.

[18] = system: LS-411N; type: functional, cell-based, Homo sapiens; conditions: Homo sapiens, LS-411N
[19] = system: MDA-MB-157; type: functional, cell-based, Homo sapiens; conditions: Homo sapiens, MDA-MB-157
Description: SANGER: Inhibition of human MDA-MB-157 cell growth in a cell viability assay.

[20] = system: MEG-01; type: functional, cell-based; conditions: Homo sapiens;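 note: growth inhibition of MEG-01 cells, read out by a cell viability assay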
Description: SANGER: Inhibition of human MEG-01 cell growth in a cell viability assay.

[21] = system: MKN-28; type: functional, cell-based, Homo sapiens; conditions: Homo sapiens, MKN-28;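 note: cell viability assay read-out, IC50 reflects suppression of growth of human MKN-28 cells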
Description: SANGER: Inhibition of human MKN28 cell growth in a cell viability assay.

[22] = system: MKN-7; type: functional, cell-based, Homo sapiens; conditions: Homo sapiens, MKN-7;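 note: growth inhibition of MKN-7 cells, read out with a cell viability assay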
Description: SANGER: Inhibition of human MKN7 cell growth in a cell viability assay.

[23] = system: MSTO-211H; type: functional, cell-based, Homo sapiens; conditions: Homo sapiens, MSTO-211H
Description: SANGER: Inhibition of human MSTO-211H cell growth in a cell viability assay.

[24] = system: MZ1-PC; type: functional, cell-based, Homo sapiens; conditions: Homo sapiens, MZ1-PC;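 note: cell viability assay measuring growth inhibition of human MZ1-PC cells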
Description: SANGER: Inhibition of human MZ1-PC cell growth in a cell viability assay.

[25] = system: MeWo; type: functional, cell-based, Homo sapiens; conditions: Homo sapiens, MeWo;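 note: growth inhibition of MeWo cells, determined by a cell viability readout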
Description: SANGER: Inhibition of human Mewo cell growth in a cell viability assay.

[26] = system: NCI-H1299; type: functional, cell-based, Homo sapiens; conditions: Homo sapiens, NCI-H1299;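 note: growth inhibition of human NCI-H1299 cells, read out by a cell viability assay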
Description: SANGER: Inhibition of human NCI-H1299 cell growth in a cell viability assay.

[27] = system: NCI-H1355; type: functional, cell-based, Homo sapiens; conditions: Homo sapiens, NCI-H1355;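 note: growth inhibition of human NCI-H1355 cells, read out by a cell viability assay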
Description: SANGER: Inhibition of human NCI-H1355 cell growth in a cell viability assay.

[28] = system: NCI-H1651; type: functional, cell-based, Homo sapiens; conditions: Homo sapiens, NCI-H1651;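 note: Read-out is a cell viability assay, with IC50 expressing inhibition of NCI-H1651 cell growth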
Description: SANGER: Inhibition of human NCI-H1651 cell growth in a cell viability assay.

[29] = system: NCI-H1793; type: functional, cell-based, Homo sapiens; conditions: Homo sapiens, NCI-H1793;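 note: cell growth inhibition, read out by a cell viability assay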
Description: SANGER: Inhibition of human NCI-H1793 cell growth in a cell viability assay.

[30] = system: NCI-H2122; type: functional, cell-based, Homo sapiens; conditions: Homo sapiens, NCI-H2122;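 note: growth inhibition of the cells, read out with a cell viability assay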
Description: SANGER: Inhibition of human NCI-H2122 cell growth in a cell viability assay.

[31] = system: OMC-1; type: functional, cell-based, Homo sapiens; conditions: Homo sapiens, OMC-1;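 note: growth inhibition of the OMC-1 cell line, measured by a cell viability assay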
Description: SANGER: Inhibition of human OMC-1 cell growth in a cell viability assay.

[32] = system: P12-Ichikawa; type: functional, cell-based; conditions: Homo sapiens
[33] = system: Panc1005; type: functional, cell-based, Homo sapiens; conditions: Homo sapiens, Panc1005;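 note: growth inhibition of human PANC-10-05 cells, measured by a cell viability assay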
Description: SANGER: Inhibition of human PANC-10-05 cell growth in a cell viability assay.

[34] = system: RCC10RGB; type: functional, cell-based, Homo sapiens; conditions: Homo sapiens, RCC10RGB;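 note: growth inhibition of human RCC10RGB cells, read out by a cell viability assay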
Description: SANGER: Inhibition of human RCC10RGB cell growth in a cell viability assay.

[35] = system: SF-268; type: functional, cell-based, Homo sapiens; conditions: Homo sapiens, SF-268;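 note: growth inhibition of SF-268 cells determined with a cell viability assay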
Description: SANGER: Inhibition of human SF268 cell growth in a cell viability assay.

[36] = system: SK-LMS-1; type: functional, cell-based, Homo sapiens; conditions: Homo sapiens, SK-LMS-1;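 note: growth inhibition of human SK-LMS-1 cells, read out with a cell viability assay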
Description: SANGER: Inhibition of human SK-LMS-1 cell growth in a cell viability assay.

[37] = system: SK-MEL-30; type: functional, cell-based; conditions: Homo sapiens;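 note: growth inhibition of SK-MEL-30 cells, determined with a cell viability assay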
Description: SANGER: Inhibition of human SK-MEL-30 cell growth in a cell viability assay.

[38] = system: SK-MES-1; type: functional, cell-based, Homo sapiens; conditions: Homo sapiens, SK-MES-1;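 note: growth inhibition of human SK-MES-1 cells, read out with a cell viability assay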
Description: SANGER: Inhibition of human SK-MES-1 cell growth in a cell viability assay.

[39] = system: SNU-449; type: functional, cell-based, Homo sapiens; conditions: Homo sapiens, SNU-449
Description: SANGER: Inhibition of human SNU-449 cell growth in a cell viability assay.

[40] = system: SW1088; type: functional, cell-based, Homo sapiens; conditions: Homo sapiens, SW1088;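 note: growth inhibition of human SW1088 cells, read out by a cell viability assay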
Description: SANGER: Inhibition of human SW1088 cell growth in a cell viability assay.

[41] = system: 647-V; type: functional, cell-based, Homo sapiens; conditions: Homo sapiens, 647-V;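 note: growth inhibition of 647-V cells, read out with a cell viability assay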
Description: SANGER: Inhibition of human 647-V cell growth in a cell viability assay.

[42] = system: A2058; type: functional, cell-based; conditions: Homo sapiens;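 note: reduction of A2058 cell growth, read out with a viability assay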
Description: SANGER: Inhibition of human A2058 cell growth in a cell viability assay.

[43] = system: A-427; type: functional, cell-based, Homo sapiens; conditions: Homo sapiens, A-427;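 note: growth inhibition of human A-427 cells, read out by a cell viability assay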
Description: SANGER: Inhibition of human A427 cell growth in a cell viability assay.

[44] = system: BB65-RCC; type: functional, cell-based, Homo sapiens; conditions: Homo sapiens, BB65-RCC;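 note: growth inhibition of the cell line, measured with a cell viability assay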
Description: SANGER: Inhibition of human BB65-RCC cell growth in a cell viability assay.

[45] = system: BFTC-905; type: functional, cell-based, Homo sapiens; conditions: Homo sapiens, BFTC-905
Description: SANGER: Inhibition of human BFTC-905 cell growth in a cell viability assay.

[46] = system: UACC-257; type: functional, cell-based, Homo sapiens; conditions: Homo sapiens, UACC-257
Description: SANGER: Inhibition of human UACC-257 cell growth in a cell viability assay.

[47] = system: VM-CUB-1; type: functional, cell-based; conditions: Homo sapiens;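 note: cell viability assay measuring growth inhibition of the human VM-CUB-1 cell line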
Description: SANGER: Inhibition of human VM-CUB-1 cell growth in a cell viability assay.

[48] = system: YAPC; type: functional, cell-based, Homo sapiens; conditions: Homo sapiens, YAPC;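 note: growth inhibition of YAPC cells, measured with a cell viability assay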
Description: SANGER: Inhibition of human YAPC cell growth in a cell viability assay.

[49] = system: CCRF-CEM; type: functional, cell-based; conditions: Homo sapiens;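 note: inhibition of CCRF-CEM cell growth, measured by a cell viability assay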
Description: SANGER: Inhibition of human CCRF-CEM cell growth in a cell viability assay.

[50] = system: CHP-212; type: functional, cell-based, Homo sapiens; conditions: Homo sapiens, CHP-212
Description: SANGER: Inhibition of human CHP-212 cell growth in a cell viability assay.

SMILES: CCC1=C[C@@H]2CN(C1)Cc1c([nH]c3ccccc13)[C@@](C(=O)OC)(c1cc3c(cc1OC)N(C)[C@H]1[C@@](O)(C(=O)OC)[C@H](OC(C)=O)[C@]4(CC)C=CCN5CC[C@]31[C@@H]54)C2 [VINORELBINE]
- IC50 [1]: 30.9 nM
- IC50 [2]: 30.4 nM
- IC50 [3]: > 64 nM
- IC50 [4]: 15.9 nM
- IC50 [5]: 2.71 nM
- IC50 [6]: > 64 nM
- IC50 [7]: 42.4 nM
- IC50 [8]: > 64 nM
- IC50 [9]: 30.6 nM
- IC50 [10]: 38.3 nM
- IC50 [11]: 4.77 nM
- IC50 [12]: > 64 nM
- IC50 [13]: 3.22 nM
- IC50 [14]: > 64 nM
- IC50 [15]: 21.8 nM
- IC50 [16]: 7.13 nM
- IC50 [17]: 45.8 nM
- IC50 [18]: 3.17 nM
- IC50 [19]: > 64 nM
- IC50 [20]: 20.8 nM
- IC50 [21]: 4.77 nM
- IC50 [22]: > 64 nM
- IC50 [23]: > 64 nM
- IC50 [24]: 17.7 nM
- IC50 [25]: 15.2 nM
- IC50 [26]: 13.6 nM
- IC50 [27]: 2.9 nM
- IC50 [28]: 60.6 nM
- IC50 [29]: 19.2 nM
- IC50 [30]: 2.59 nM
- IC50 [31]: > 64 nM
- IC50 [32]: 25.2 nM
- IC50 [33]: 3.52 nM
- IC50 [34]: > 64 nM
- IC50 [35]: 16.3 nM
- IC50 [36]: 1.46 nM
- IC50 [37]: 12.4 nM
- IC50 [38]: 5.73 nM
- IC50 [39]: > 64 nM
- IC50 [40]: > 64 nM
- IC50 [41]: 20.9 nM
- IC50 [42]: 3.5 nM
- IC50 [43]: 3.1 nM
- IC50 [44]: 61.8 nM
- IC50 [45]: 3.62 nM
- IC50 [46]: 30.4 nM
- IC50 [47]: 19.1 nM
- IC50 [48]: > 64 nM
- IC50 [49]: 4.56 nM
- IC50 [50]: 24.6 nM
